The source of these data is patent US7070813B2, “Preventative and treatment effects of morinda citrifolia as a colon cancer cell growth inhibitor” (priority 2001, dated 2006).

pIC50: −log10 of the molar value.

The test system of this assay is human colon tumor cell line DLD-1. Nature of the assay: cells. Type of assay: cell-based. The conditions noted are these: for Percent Growth (Mean ± SEM, n = 2): 72 h exposure. As for the experimental part:
A colon tumor assay was used to detect changes in cell proliferation based on the ability of viable cells to cause alamarBlue to change from its oxidized state (non-fluorescent, blue) to a reduced (fluorescent, red) form. With the results obtained from the alamarBlue reaction, cell proliferation can be quantified and metabolic activity of viable cells can be examined. MDA-1 (a processed Morinda citrifolia product) was tested for its effect upon the proliferation of human colon tumor cell line (or DLD-1), and at five final assay concentrations from 10% to […] through 2-fold serial dilutions.
The MDA-1 test compound, or Morinda citrifolia fruit juice, was used for in vitro anti-tumor studies. The test compound was in liquid form and diluted with phosphate-buffered saline to obtain initial working solutions. […]
The human colon tumor cell line of DLD-1 was obtained from American Type Culture Collection (ATCC CCL-221). The culture was used with RPMI 1640, 90%; Fetal Bovine Serum, 10% and supplemented with 1% Antibiotic-Antimycotic and the cells were incubated in an atmosphere containing 5% CO2 at 37 degrees Celsius.
In the evaluation of anti-proliferation for test substances, […].
Mean Ftime0=The average of two measured fluorescent intensities of reduced alamarBlue at the time just before exposure of cells to the test substance.
Mean Ftest=The average of two measured fluorescent intensities of alamarBlue after seventy-two hour exposure of cells to the test substance.
Mean Fctrl=The average of two measured fluorescent intensities of alamarBlue after seventy-two hour incubation without the test substance.
Mean Fblank=The average of two measured fluorescent intensities of alamarBlue in medium without cells after seventy-two hour incubation.
A decrease of fifty percent or more (≧50%) in fluorescent intensity relative to vehicle-treated control indicated significant cell growth inhibition, cytostatic or cytotoxic activity, and a semi-quantitative IC50, TGI and LC50 were then determined by nonlinear regression using GraphPad Prism (GraphPad Software, USA).
TGI (Total Growth Inhibition): Test compound concentration where the number or mass of treated cells at the end of experiment was equal to that at time0.
A semi-quantitative determination of IC50, TGI and LC50 was carried out by nonlinear regression analysis using GraphPad Prism (GraphPad Software, USA).

With `CO[C@@]12[C@H](COC(N)=O)C3=C(C(=O)C(C)=C(N)C3=O)N1C[C@@H]1N[C@@H]12` [Mitomycin], the “activity of standard reference agent (growth inhibition)” value (DLD-1, at <10 μM) is “Significant activity”. Also, the “Percent Growth (Mean ± SEM, n = 2)” value was 95 ± 5 (DLD-1, concentration 0.001 μM); 103 ± 6 (DLD-1, concentration 0.01 μM); 60 ± 7 (DLD-1, concentration 0.1 μM); 35 ± 4 (DLD-1, concentration 1 μM); −50 ± 8 (DLD-1, concentration 10 μM). The “Estimated TGI (Total Growth Inhibition)” value (DLD-1, semi-quantitative, nonlinear regression) was 2.2 µM. For the same compound, the pIC50 (Homo sapiens, DLD-1, semi-quantitative, nonlinear regression, read-out: Estimated IC50 (50% Inhibition Concentration)) was 6.42.
